Experimental data: patent US20090197893A1 (Bristol-Myers Squibb Company, priority 2005, published 2009)
Read-outs that look alike come from different tables or passages of the source.

Key:
CML patients = conditions: cited from earlier work; for patients who developed resistance to imatinib: 4 years of follow-up
[1] = tested on: patients with advanced CML or Ph+ ALL with imatinib resistance/intolerance; test: Dasatinib dose escalation clinical trial: cytogenetic response; conditions: for Cytogenetic response: CCyR / Cytogenetic response: Major CyR / Cytogenetic response: Minimal CyR / Cytogenetic response: Overall CyR / Cytogenetic response: PCyR / Cytogenetic response: Minor CyR: patients n (%)
[2] = tested on: patients with advanced CML or Ph+ ALL with imatinib resistance/intolerance; test: Dasatinib dose escalation clinical trial: hematologic response; conditions: for Hematologic response: CHR / Hematologic response: Major HR / Hematologic response: NEL / Hematologic response: Minor HR: patients n (%); for patients who responded: p=0.049
[3] = Plasma pharmacokinetics in patients; assay type: in vivo, human; conditions: T315I patients; FIG. 2b
p-glycoprotein = p-glycoprotein (Homo sapiens, UniProt P08183); conditions: cited from earlier work
wild-type BCR-ABL = conditions: cited from earlier work
[4] = tested on: imatinib-resistant BCR-ABL mutants; conditions: cited from earlier work
[5] = AP (N = 11), regardless of relationship to treatment, patients n (%)
[6] = AP-CML (N = 11), patients n (%)
[7] = LBC/ALL (N = 10), patients n (%)
[8] = LBC/ALL (N = 10), regardless of relationship to treatment, patients n (%)
[9] = LBC/Ph+ ALL (N = 10), patients n (%)
[10] = MBC N = (23), regardless of relationship to treatment, patients n (%)

Sequence of p-glycoprotein (P08183 whole entry): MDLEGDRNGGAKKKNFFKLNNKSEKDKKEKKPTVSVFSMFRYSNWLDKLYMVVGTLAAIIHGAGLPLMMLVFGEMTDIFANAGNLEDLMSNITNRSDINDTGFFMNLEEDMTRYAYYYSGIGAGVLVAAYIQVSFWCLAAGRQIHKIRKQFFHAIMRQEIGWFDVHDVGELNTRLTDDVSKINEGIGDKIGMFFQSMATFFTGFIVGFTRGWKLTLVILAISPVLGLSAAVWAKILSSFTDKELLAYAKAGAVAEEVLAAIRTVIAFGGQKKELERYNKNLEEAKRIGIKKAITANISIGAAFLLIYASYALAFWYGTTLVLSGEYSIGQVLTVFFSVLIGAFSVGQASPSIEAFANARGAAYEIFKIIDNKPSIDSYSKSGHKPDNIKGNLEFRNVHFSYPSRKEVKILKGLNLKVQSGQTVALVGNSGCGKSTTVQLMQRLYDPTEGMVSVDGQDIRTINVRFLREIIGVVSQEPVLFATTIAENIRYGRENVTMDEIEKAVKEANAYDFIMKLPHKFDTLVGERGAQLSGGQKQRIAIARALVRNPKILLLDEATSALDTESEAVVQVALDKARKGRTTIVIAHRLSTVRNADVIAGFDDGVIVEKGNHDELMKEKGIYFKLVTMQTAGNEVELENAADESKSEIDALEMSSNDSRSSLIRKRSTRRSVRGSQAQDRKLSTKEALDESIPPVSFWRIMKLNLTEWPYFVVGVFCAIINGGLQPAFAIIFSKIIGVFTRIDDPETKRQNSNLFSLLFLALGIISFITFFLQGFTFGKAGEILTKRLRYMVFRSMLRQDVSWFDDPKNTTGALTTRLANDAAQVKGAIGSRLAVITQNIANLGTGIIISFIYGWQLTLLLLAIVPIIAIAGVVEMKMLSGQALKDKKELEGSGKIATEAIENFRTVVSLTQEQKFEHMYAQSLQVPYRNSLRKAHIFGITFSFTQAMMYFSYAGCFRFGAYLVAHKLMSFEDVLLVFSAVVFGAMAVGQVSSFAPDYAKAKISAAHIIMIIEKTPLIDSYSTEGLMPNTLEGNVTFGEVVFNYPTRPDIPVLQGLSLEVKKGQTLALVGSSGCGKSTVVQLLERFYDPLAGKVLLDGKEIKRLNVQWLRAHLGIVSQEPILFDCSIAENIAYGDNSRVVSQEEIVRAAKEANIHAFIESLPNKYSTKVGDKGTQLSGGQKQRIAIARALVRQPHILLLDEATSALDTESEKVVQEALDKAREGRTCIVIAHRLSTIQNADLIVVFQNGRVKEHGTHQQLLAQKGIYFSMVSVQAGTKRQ

Cc1ccc(NC(=O)c2ccc(CN3CCN(C)CC3)cc2)cc1Nc1nccc(-c2cccnc2)n1 [imatinib]
patients who developed resistance to imatinib (CML patients; AP CML patients): 75%
patients who developed resistance to imatinib (CML patients; BC patients): 95%
estimated 2-year incidence of resistance (CML patients; blastic phase): 80%
estimated 2-year incidence of resistance (CML patients; chronic phase post-interferon-α failure): 10%

Cc1nc(Nc2ncc(C(=O)Nc3c(C)cccc3Cl)s2)cc(N2CCN(CCO)CC2)n1 [dasatinib, N-(2-chloro-6-methylphenyl)-2-[[6-[4-(2-hydroxyethyl)-1-piperazinyl]-2-methyl-4-pyrimidinyl]amino]-5-thiazolecarboxamide]
Cytogenetic response: CCyR ([1]; AP CML n = 11): 2 (18)
Cytogenetic response: Major CyR ([1]; AP CML n = 11): 3 (27)
Cytogenetic response: Minimal CyR ([1]; AP CML n = 11): 1 (9)
Cytogenetic response: Overall CyR ([1]; AP CML n = 11): 4 (36)
Cytogenetic response: PCyR ([1]; AP CML n = 11): 1 (9)
Major cytogenetic responses ([1]; AP patients, 3/11): 27%
Cytogenetic response: CCyR ([1]; LBC-CML/ALL n = 10): 3 (30)
Cytogenetic response: Major CyR ([1]; LBC-CML/ALL n = 10): 8 (80)
Cytogenetic response: Minor CyR ([1]; LBC-CML/ALL n = 10): 1 (10)
Cytogenetic response: Overall CyR ([1]; LBC-CML/ALL n = 10): 9 (90)
Cytogenetic response: PCyR ([1]; LBC-CML/ALL n = 10): 5 (50)
MCyR rate ([1]; LBC/Ph+ ALL patients, 8/10): 80%
overall cytogenetic response rate ([1]; LBC/Ph+ ALL patients, 9/10): 90%
Cytogenetic responses ([1]; MBC patients, 12/23): 52%
Cytogenetic response: CCyR ([1]; MBC-CML n = 23): 6 (26)
Cytogenetic response: Major CyR ([1]; MBC-CML n = 23): 8 (35)
Cytogenetic response: Minimal CyR ([1]; MBC-CML n = 23): 2 (9)
Cytogenetic response: Minor CyR ([1]; MBC-CML n = 23): 2 (9)
Cytogenetic response: Overall CyR ([1]; MBC-CML n = 23): 12 (52)
Cytogenetic response: PCyR ([1]; MBC-CML n = 23): 2 (9)
Cytogenetic response: CCyR ([1]; Total N = 44): 11 (25)
Cytogenetic response: Major CyR ([1]; Total N = 44): 19 (43)
Cytogenetic response: Minimal CyR ([1]; Total N = 44): 3 (7)
Cytogenetic response: Minor CyR ([1]; Total N = 44): 3 (7)
Cytogenetic response: Overall CyR ([1]; Total N = 44): 25 (57)
Cytogenetic response: PCyR ([1]; Total N = 44): 8 (18)
CCyR ([1]; total patient population, 11/44): 25%
major CyR (CCyR plus PCyR) ([1]; total patient population, 19/44): 43%
CyR ([1]; total patient population, 25/44): 57%
maximum tolerated dose (35-120 mg BID cohorts): not defined
Diarrhea, Grade 1-4 (AP (N = 11), patients n (%)): 5 (45)
Dyspnea/Pulmonary edema, Grade 1-4 (AP (N = 11), patients n (%)): 3 (27)
Flushing, Grade 1-4 (AP (N = 11), patients n (%)): 3 (27)
Generalized edema, Grade 1-4 (AP (N = 11), patients n (%)): 1 (9)
Headache, Grade 1-4 (AP (N = 11), patients n (%)): 3 (27)
Nausea, Grade 1-4 (AP (N = 11), patients n (%)): 1 (9)
On-Study Myelosuppression: ANC, Grade 3 (AP (N = 11), patients n (%)): 3 (27)
On-Study Myelosuppression: Platelets, Grade 3 (AP (N = 11), patients n (%)): 3 (27)
Periorbital edema, Grade 1-4 (AP (N = 11), patients n (%)): 1 (9)
Peripheral edema, Grade 1-4 (AP (N = 11), patients n (%)): 3 (27)
Rash, Grade 1-4 (AP (N = 11), patients n (%)): 5 (45)
Vomiting, Grade 1-4 (AP (N = 11), patients n (%)): 1 (9)
Elevated ALT, Grade 1-4 [5]: 8 (73)
Elevated ALT, Grade 3-4 [5]: 1 (9)
Elevated AST, Grade 1-4 [5]: 7 (64)
Elevated Total bilirubin, Grade 1-4 [5]: 2 (18)
Elevated creatinine, Grade 1-4 [5]: 2 (18)
Hypocalcemia, Grade 1-4 [5]: 8 (73)
Hypocalcemia, Grade 3-4 [5]: 2 (18)
Hypomagnesemia, Grade 1-4 [5]: 5 (45)
Grade 3 or 4 neutropenia on treatment (AP, 9/11 patients): 82%
grade 3/4 thrombocytopenia (AP, 9/11 patients): 82%
On-Study Myelosuppression: ANC, Grade 4 [6]: 6 (55)
On-Study Myelosuppression: Platelets, Grade 4 [6]: 6 (55)
Diarrhea, Grade 1-4 [7]: 2 (20)
Dyspnea/Pulmonary edema, Grade 1-4 [7]: 1 (10)
Generalized edema, Grade 1-4 [7]: 1 (10)
Nausea, Grade 1-4 [7]: 1 (10)
Periorbital edema, Grade 1-4 [7]: 1 (10)
Peripheral edema, Grade 1-4 [7]: 1 (10)
Pleural effusion, Grade 1-4 [7]: 2 (20)
Rash, Grade 1-4 [7]: 1 (10)
Vomiting, Grade 1-4 [7]: 1 (10)
Elevated ALT, Grade 1-4 [8]: 7 (70)
Elevated AST, Grade 1-4 [8]: 9 (90)
Elevated Total bilirubin, Grade 1-4 [8]: 5 (50)
Elevated creatinine, Grade 1-4 [8]: 6 (60)
Hypocalcemia, Grade 1-4 [8]: 7 (70)
Hypocalcemia, Grade 3-4 [8]: 3 (30)
Hypomagnesemia, Grade 1-4 [8]: 3 (30)
On-Study Myelosuppression: ANC, Grade 3 [9]: 2 (20)
On-Study Myelosuppression: ANC, Grade 4 [9]: 6 (60)
On-Study Myelosuppression: Platelets, Grade 3 [9]: 0
On-Study Myelosuppression: Platelets, Grade 4 [9]: 7 (70)
grade 3/4 thrombocytopenia (LBC/Ph+ ALL, 7/10 patients): 70%
Grade 3 or 4 neutropenia on treatment (LBC/Ph+ ALL, 8/10 patients): 80%
Diarrhea, Grade 1-4 (MBC (N = 23), patients n (%)): 5 (22)
Diarrhea, Grade 3-4 (MBC (N = 23), patients n (%)): 1 (4)
Dyspnea/Pulmonary edema, Grade 1-4 (MBC (N = 23), patients n (%)): 2 (9)
Dyspnea/Pulmonary edema, Grade 3-4 (MBC (N = 23), patients n (%)): 2 (9)
Flushing, Grade 1-4 (MBC (N = 23), patients n (%)): 1 (4)
Headache, Grade 1-4 (MBC (N = 23), patients n (%)): 1 (4)
Nausea, Grade 1-4 (MBC (N = 23), patients n (%)): 4 (17)
On-Study Myelosuppression: ANC, Grade 3 (MBC (N = 23), patients n (%)): 2 (9)
On-Study Myelosuppression: ANC, Grade 4 (MBC (N = 23), patients n (%)): 20 (87)
On-Study Myelosuppression: Platelets, Grade 3 (MBC (N = 23), patients n (%)): 2 (9)
On-Study Myelosuppression: Platelets, Grade 4 (MBC (N = 23), patients n (%)): 17 (74)
Pericardial effusion, Grade 1-4 (MBC (N = 23), patients n (%)): 3 (13)
Pericardial effusion, Grade 3-4 (MBC (N = 23), patients n (%)): 2 (9)
Periorbital edema, Grade 1-4 (MBC (N = 23), patients n (%)): 2 (9)
Peripheral edema, Grade 1-4 (MBC (N = 23), patients n (%)): 5 (22)
Pleural effusion, Grade 1-4 (MBC (N = 23), patients n (%)): 8 (35)
Pleural effusion, Grade 3-4 (MBC (N = 23), patients n (%)): 3 (13)
Rash, Grade 1-4 (MBC (N = 23), patients n (%)): 2 (9)
Rectal hemorrhage, Grade 1-4 (MBC (N = 23), patients n (%)): 2 (9)
Rectal hemorrhage, Grade 3-4 (MBC (N = 23), patients n (%)): 2 (9)
Tumor lysis syndrome, Grade 1-4 (MBC (N = 23), patients n (%)): 2 (9)
Tumor lysis syndrome, Grade 3-4 (MBC (N = 23), patients n (%)): 2 (9)
Vomiting, Grade 1-4 (MBC (N = 23), patients n (%)): 2 (9)
Elevated ALT, Grade 1-4 [10]: 13 (57)
Elevated AST, Grade 1-4 [10]: 13 (57)
Elevated Total bilirubin, Grade 1-4 [10]: 10 (43)
Elevated Total bilirubin, Grade 3-4 [10]: 4 (17)
Elevated creatinine, Grade 1-4 [10]: 12 (52)
Hypocalcemia, Grade 1-4 [10]: 21 (91)
Hypocalcemia, Grade 3-4 [10]: 6 (26)
Hypomagnesemia, Grade 3-4 [10]: 1 (4)
grade 3/4 thrombocytopenia (MBC, 19/23 patients): 83%
Grade 3 or 4 neutropenia on treatment (MBC, 22/23 patients): 96%
severe (grade 4) myelosuppression (advanced phase CML patients): about 70%
patients removed from the study due to a drug-related toxicity (all patients): no patient
Grade 3/4 non-hematologic adverse events (all patients, 9/44): 20%
non-malignant pleural effusions (often in the absence of other edema): 10 patients
Hematologic response: CHR ([2]; AP CML n = 11): 5 (45)
Hematologic response: Major HR ([2]; AP CML n = 11): 9 (81)
Hematologic response: NEL ([2]; AP CML n = 11): 4 (36)
patients who achieved a major HR remain on study ([2]; AP cohort, 9/11, median of 8 months (range 2-13 months)): 81%
major HR confirmed after 4 weeks ([2]; AP patients, 6): 55%
major HR ([2]; AP patients, 9/11): 81%
Hematologic response: CHR ([2]; LBC-CML/ALL n = 10): 7 (70)
Hematologic response: Major HR ([2]; LBC-CML/ALL n = 10): 8 (80)
Hematologic response: NEL ([2]; LBC-CML/ALL n = 10): 1 (10)
major HR confirmed after 4 weeks ([2]; LBC/Ph+ ALL, 5): 50%
major HR rate ([2]; LBC/Ph+ ALL, 8/10): 80%
major HR confirmed after 4 weeks ([2]; MBC patients, 7): 30%
major HR ([2]; MBC patients, 14/23): 61%
patients who remain on the study ([2]; MBC, 6 of 23, follow-up ranging 5-12 months): 26%
Hematologic response: CHR ([2]; MBC-CML n = 23): 8 (35)
Hematologic response: Major HR ([2]; MBC-CML n = 23): 14 (61)
Hematologic response: Minor HR ([2]; MBC-CML n = 23): 4 (17)
Hematologic response: NEL ([2]; MBC-CML n = 23): 6 (26)
patients who failed to meet the criteria for major or minor hematologic response ([2]; Nine of the 44 patients): 20%
Hematologic response: CHR ([2]; Total N = 44): 20 (45)
Hematologic response: Major HR ([2]; Total N = 44): 31 (70)
Hematologic response: Minor HR ([2]; Total N = 44): 4 (9)
Hematologic response: NEL ([2]; Total N = 44): 11 (25)
patients who responded ([2]; complex karyotypes, 17 of 25 patients): 68%
relapsed within 6 months ([2]; lymphoid blast crisis or Ph+ ALL): all but one patient
patients with durable responses for 10 months or longer ([2]; of the 8 Myeloid BC patients who achieved CHR): 3
patients who responded ([2]; simple Ph karyotypes, 17 of 18 patients): 94%
CHR ([2]; total patient population, 20/44): 45%
major HR ([2]; total patient population, 31/44): 70%
serum levels [3]: adequate
substrate for p-glycoprotein (p-glycoprotein): not a substrate

Cc1cn(-c2cc(NC(=O)c3ccc(C)c(Nc4nccc(-c5cccnc5)n4)c3)cc(C(F)(F)F)c2)cn1 [AMN107]
imatinib-resistant BCR-ABL mutants against which significantly active [4]: 32/33
